Test results: PMC9737391, “Trifluoromethylcinnamanilide Michael Acceptors for Treatment of Resistant Bacterial Infections” (International Journal of Molecular Sciences, 2022)
In brackets after ≈: the same amount, converted by molar mass.

Columns and labels:
[1] = system: human monocytic leukemia cell line THP-1; experiment: In vitro cell viability (cytotoxicity screening); type: cell-based; conditions: 24 h, medium with 10% FBS, ± SD, n = 6
Description: The investigated anilides can be divided into three groups. […] Higher concentrations (than 10 or 30 µM) were not possible to evaluate due to precipitation of the tested compounds in water medium. Based on all these observations, it can be concluded that the high antimicrobial activity of 3,5-CF3-substituted compounds is associated with significant cytotoxic effect against eukaryotic cells. On the other hand, the other still effective compounds, especially agents 1j and 1o, have an insignificant toxic effect, which makes them interesting for further study.
Human monocytic leukemia THP-1 cells obtained from the European Collection of Cell Cultures (ECACC, Salisbury, UK) were used for in vitro antiproliferative assays. A recently described procedure was used.

[2] = system: M. smegmatis ATCC 700084; experiment: In vitro antimycobacterial evaluation (MIC); type: cell-based, Mycobacterium smegmatis; conditions: Mycolicibacterium smegmatis, ATCC700084
[3] = system: methicillin-resistant S. aureus 63718 (MRSA3); experiment: MBC, agar aliquot subculture method; type: cell-based; conditions: Staphylococcus aureus; MRSA 63718
[4] = system: methicillin-resistant S. aureus SA 630 (MRSA2); experiment: MBC, agar aliquot subculture method; type: cell-based; conditions: Staphylococcus aureus; MRSA SA 630
[5] = system: methicillin-resistant S. aureus 63718 (MRSA3); experiment: MIC, microtitration broth method; type: cell-based; conditions: Staphylococcus aureus; MRSA 63718
[6] = system: Staphylococcus aureus ATCC 29213; experiment: MIC, microtitration broth method; type: cell-based; conditions: ATCC29213, S. aureus ATCC 29213
[7] = system: methicillin-resistant S. aureus SA 3202 (MRSA1); experiment: MIC, microtitration broth method; type: cell-based; conditions: Staphylococcus aureus; MRSA SA 3202
[8] = system: methicillin-resistant S. aureus SA 3202 (MRSA1); experiment: MBC, agar aliquot subculture method; type: cell-based; conditions: Staphylococcus aureus; MRSA SA 3202
[9] = system: S. aureus ATCC 29213; experiment: MTT assay, inhibition of bacterial respiration; type: cell-based, Staphylococcus aureus
Source text: The MTT assay can be used to assess cell growth by measuring respiration. Respiratory activity of bacterial cells (which is finally reflected in their viability) less than 70% after exposure to the MIC values for each tested compound is considered as a positive result of this assay. This low level of cell oxidative metabolism indicates inhibition of cell growth by inhibition of respiration. The lowest multiples of MIC values that achieved more than 70% inhibition of S. aureus ATCC 29213 viability (%) are shown in Table 3.
The percent inhibition of respiration of S. aureus ATCC 29213 was determined through the MTT assay. The assay was performed as described recently. The percent viability is calculated through the comparison of a measured value and that of the uninhibited control: % viability = OD570E/OD570P × 100, where OD570E is the reading from the compound-exposed cells, while OD570P is the reading from the uninhibited cells (positive control). Cytotoxic potential is determined by a percent viability of <70% [46, 47].

[10] = system: Staphylococcus aureus ATCC 29213; experiment: MBC, agar aliquot subculture method; type: cell-based; conditions: ATCC29213, S. aureus ATCC 29213
[11] = system: methicillin-resistant S. aureus SA 630 (MRSA2); experiment: MIC, microtitration broth method; type: cell-based; conditions: Staphylococcus aureus; MRSA SA 630
[12] = Lipophilicity determination by RP-HPLC; type: physicochemical; conditions: RP-HPLC, logarithm of capacity factor k
Description: It is evident from the graphs in Figure 1 that the correlation coefficients of the dependences of log k/log D6.5/log D7.4 have a value of r = 0.999 (n = 32), which means that the investigated compounds behave insignificantly differently in aqueous media with different pH. Moreover, lipophilicity was calculated as log P and Clog P using two prediction programs. […] Therefore, only log P values predicted by ACD/Percepta can be used for correlations with experimental values. These matches are shown in the graphs in Figure 2, and according to the correlation coefficient r~0.940 (n = 32), it can be argued that even the predicted lipophilicity values correlate with the experimentally measured ones. However, the largest variations were observed (no difference for series 1, 2) for compounds substituted with 2-Cl, 2-CF3, 2,5-Cl, 4-F, 4-CF3, and 3,5-F, 3,5-Cl. These are mainly substituents capable of forming hydrogen and other types of non-bonding interactions both with the surrounding environment and within the molecule. Overall, series 1 (3-CF3) is less lipophilic than series 2 (4-CF3), but the differences in the experimental data are insignificant. Unsubstituted derivatives 1a/2a are the least lipophilic compounds, while derivatives 1o/2o (3,5-Cl) and 1p/2p (3,5-CF3) are the most lipophilic compounds.
Experimental determination of lipophilicity values (log k, log D6.5, and log D7.4) was performed under the same conditions and on the same device as described by Strharsky et al..

[13] = system: M. tuberculosis H37Ra; parameters: method as in ref 26 = [26]; PMID 30087309; doi:10.3390/ijms19082318; 26. Pospisilova S. Kos J. Michnova H. Kapustikova I. Strharsky T. Oravec M. Moricz A.M. Bakonyi J. Kauerova T. Kollar P. Synthesis and spectrum of biological activities of novel N -arylcinnamamides In; conditions: average over the named compounds; cited from earlier work
[14] = system: M. smegmatis and M. marinum; experiment: Antimycobacterial activity, summary over both strains; type: cell-based; conditions: average over the named compounds and strains; read-out: average MIC against M. smegmatis and M. marinum
[15] = system: vancomycin-resistant E. faecalis VRE 342B (VRE1); experiment: MBC, agar aliquot subculture method; type: cell-based, Enterococcus faecalis
[16] = system: Enterococcus faecalis ATCC 29212; experiment: MIC, microtitration broth method; type: cell-based; conditions: ATCC29212, E. faecalis reference strain
[17] = system: Enterococcus faecalis ATCC 29212; experiment: MBC, agar aliquot subculture method; type: cell-based; conditions: ATCC29212, E. faecalis reference strain
[18] = system: vancomycin-resistant E. faecalis VRE 725B (VRE3); experiment: MIC, microtitration broth method; type: cell-based, Enterococcus faecalis
[19] = system: vancomycin-resistant E. faecalis VRE 368 (VRE2); experiment: MIC, microtitration broth method; type: cell-based, Enterococcus faecalis
[20] = system: vancomycin-resistant E. faecalis VRE 342B (VRE1); experiment: MIC, microtitration broth method; type: cell-based, Enterococcus faecalis
[21] = system: vancomycin-resistant E. faecalis VRE 368 (VRE2); experiment: MBC, agar aliquot subculture method; type: cell-based, Enterococcus faecalis
[22] = system: vancomycin-resistant E. faecalis VRE 725B (VRE3); experiment: MBC, agar aliquot subculture method; type: cell-based, Enterococcus faecalis

For `O=C(/C=C/c1cccc(C(F)(F)F)c1)Nc1cccc(F)c1` [1c, (2E)-N-(3-Fluorophenyl)-3-[3-(trifluoromethyl)phenyl]prop-2-enamide], the IC50 [1] was over 30 µM, the melting point was 113 to 115 °C and the MIC [2] was 51.7 µM (≈ 16 µg/mL). For the same molecule, the MBC [3] was 12.9 µM (≈ 3.99 µg/mL), the MBC [4] was 12.9 µM (≈ 3.99 µg/mL) and the MIC [5] was 12.9 µM (≈ 3.99 µg/mL). The MIC [6] was 12.9 µM (≈ 3.99 µg/mL), the MIC [7] was 25.9 µM (≈ 8.01 µg/mL) and the MBC [8] was 25.9 µM (≈ 8.01 µg/mL). The “Conc.: lowest multiple of MIC with at least 70% inhibition of respiratory activity” value [9] was 2 × MIC, the “Conc.: the same concentration as multiple of MBC” value (“Conc.: the same concentration” for short) [9] was 1 × MBC and the MBC [10] was 25.9 µM (≈ 8.01 µg/mL). The MIC [11] was 12.9 µM (≈ 3.99 µg/mL) and the log k [12] was 0.6333.

In the case of `O=C(/C=C/c1ccccc1)Nc1ccc(Cl)c(Cl)c1` [3e], the “average MIC against M. tuberculosis H37Ra” value [13] is listed as ~ 24 µM.

`O=C(/C=C/c1cccc(C(F)(F)F)c1)Nc1cc(C(F)(F)F)cc(C(F)(F)F)c1` [1p, (2E)-N-[3,5-bis(Trifluoromethyl)phenyl]-3-[3-(trifluoromethyl)phenyl]prop-2-enamide] showed an IC50 [1] of 6.7 ± 1.1 µM, a melting point of 147 to 149 °C and an MIC [2] of 9.36 µM (≈ 4 µg/mL). It also gave an MBC [3] of 1.17 µM (≈ 0.5 µg/mL), an MBC [4] of 1.17 µM (≈ 0.5 µg/mL) and an MIC [5] of 0.585 µM (≈ 0.25 µg/mL). It also gave an MIC [6] of 1.17 µM (≈ 0.5 µg/mL), an MIC [7] of 2.34 µM (≈ 1 µg/mL) and an MBC [8] of 2.34 µM (≈ 1 µg/mL). The MIC [14] was about 4.1 µM (≈ 1.75 µg/mL), the “Conc.: lowest multiple of MIC with at least 70% inhibition of respiratory activity” value [9] was 1× MIC (1× MBC) and the “Conc.: the same concentration” value [9] was 1× MIC (1× MBC). It also gave an MBC [10] of 1.17 µM (≈ 0.5 µg/mL), an MIC [11] of 1.17 µM (≈ 0.5 µg/mL) and a log k [12] of 1.3648.

Molecule `CC1(C)S[C@@H]2[C@H](NC(=O)[C@H](N)c3ccccc3)C(=O)N2[C@H]1C(=O)O` [AMP, ampicillin, reference compound] has an MBC [15] of 11.5 µM (≈ 4.02 µg/mL), an MIC [16] of 2.81 µM (≈ 0.982 µg/mL) and an MBC [17] of 2.81 µM (≈ 0.982 µg/mL). It also gave an MIC [18] of 11.5 µM (≈ 4.02 µg/mL), an MBC [3] of over 45.8 µM and an MBC [4] of over 45.8 µM. For the same molecule, the MIC [5] was 45.8 µM (≈ 16 µg/mL), the MIC [19] was 11.5 µM (≈ 4.02 µg/mL) and the MIC [6] was 5.72 µM (≈ 2 µg/mL). The MIC [20] was 11.5 µM (≈ 4.02 µg/mL), the MBC [21] was 11.5 µM (≈ 4.02 µg/mL) and the MIC [7] was 45.8 µM (≈ 16 µg/mL). For the same molecule, the MBC [8] was over 45.8 µM, the MBC [22] was 11.5 µM (≈ 4.02 µg/mL) and the “Conc.: lowest multiple of MIC with at least 70% inhibition of respiratory activity” value [9] was 8× MIC (>8× MBC). For the same molecule, the “Conc.: the same concentration” value [9] was 8× MIC (>8× MBC), the MBC [10] was over 5.72 µM and the MIC [11] was 45.8 µM (≈ 16 µg/mL).
